Experimental data: publication PMC7575490 (Investigational New Drugs, 2020)
≈ marks a conversion by molar mass, not a printed value.

How the values were obtained:
EGFR = system: EGFR; design: method as in PMID 27902470; settings: previous pharmacodynamic study; read-out: IC50, EGFR inhibition; cited from earlier work
ErbB2 = system: ErbB2; design: method as in PMID 27902470; settings: previous pharmacodynamic study; read-out: IC50, ErbB2 inhibition; cited from earlier work
[1] = Part 2 three-period crossover pharmacokinetics / relative bioavailability of A, B, C; format: in vivo, human
Protocol: This was a randomized, positive control, open, single-center study with a three-cycle crossover design in healthy Chinese subjects. […] The wash-out period was 7 days. The method employed for tablet administration was consistent with that in Part 1. […] After the suspension was comsumed by subjects,the container was rinsed with 40, 80, and 80 mL of water in turn and took them down.

[2] = cited from earlier work
[3] = Part 1 single ascending dose pharmacokinetics in healthy Chinese subjects; settings: for AUC0-t / AUC0-∞ / Cmax / MRT0-t / MRT0-∞ / V/F / t1/2 / λz / Tmax: analyte selatinib; for AUC0-t / AUC0-∞ / Cmax / MRT0-t / MRT0-∞ / V/F / t1/2 / λz: mean ± SD; for Tmax: median (min-max)
Protocol: This was a single-center, randomized, double-blind, placebo-controlled, single ascending study involving healthy Chinese subjects. […] Investigators and subjects were blinded to the group allociations. Treatment identity was concealed by providing drug doses and placebo of identical appearance and in identical packageing. The starting dose was calculated according to the no observed adverse effect level (NOAEL) for animals.[[[25], [26]^] […] The starting dose should be 1/10 of the human NOAEL(i.e., starting dose was 50 or 72 mg). This dose was used as a threshold guide for dose escalations. To minimize risk while providing some inhibitory effects, 50 mg was recommended for use as the starting dose. Dose escalation was designed according to the modified-Fibonacci sequence. A total of 7 dose groups were included. […] Each group consisted of 50% males and females. In addition to the 500 mg group, 2 subjects in each group were administered a single dose of placebo, one for each gender. Only 2 subjects were initially enrolled in all dose groups. Follow-up subjects were enrolled on the premise that the drug was safely tolerated at the administration dose. When all subjects in the current dose group completed the trial and this dose was deemed as tolerable, the next dose group was initiated.
Tablets were administered with 240 mL of tap water at ambient temperature. Consumption of additional water was not permitted within 1 h before and after drug administration. Light meals were served at 4 and 10 h after each dose, with identical standardized diets provided across all dosing periods.
Blood samples were collected into heparinized vacutainer tubes and gently mixed. Thereafter,plasma was separated by centrifugation (3000 rpm at 4 °C for 10 min) within 1 h of sample collection and stored frozen at −80 °C prior to analysis.
A P value<0.05 was considered to indicate statistical significance. […] Further, the logarithm of the dose and the regression coefficient and its 95%CI were calculated.

[4] = Part 1, across single doses 50–500 mg
[5] = Part 1, single 50 mg dose of selatinib (n = 4)
[6] = Part 1, single 100 mg dose of selatinib (n = 10)
[7] = Part 1, single 200 mg dose of selatinib (n = 10)
[8] = Part 1, single 250 mg dose of selatinib (n = 8)
[9] = Part 1, single 300 mg dose of selatinib (n = 10)
[10] = Part 1, single 350 mg dose of selatinib (n = 6)
[11] = Part 1, single 500 mg dose of selatinib (n = 4)
[12] = Part 2, average bioequivalence, logarithmic transformation, single 500 mg dose, suspension B vs tablets A, analyte as labelled
[13] = Part 2, single 500 mg dose of A (selatinib ditosilate tablets), n = 6, analyte as labelled, mean ± SD
[14] = Part 2, single 500 mg dose of B (selatinib ditosilate dry suspension), n = 6, analyte as labelled, mean ± SD

Question: For `CS(=O)(=O)CCNCc1ccc(-c2ccc3ncnc(Nc4ccc(OCc5cccc(F)c5)c(Cl)c4)c3c2)o1` [lapatinib, reference compound], which IC50 (EGFR) is on record?
Answer: The IC50 was […].

Question: What about the λz ([1]; Part 2, single 500 mg dose of C (lapatinib ditosylate tablets), n = 6, mean ± SD) of the same compound?
Answer: The λz was 5.70 ± 1.26 ×10^−2 /h.

Question: What about the AUC0-t ([1]; male, human, in vivo, 500 mg) of the same compound?
Answer: The AUC0-t was 5520 ± 2190 ng·h/mL.

Question: What about the AUC(0-inf) ([1]; male, human, in vivo, 500 mg) of the same compound?
Answer: The AUC(0-inf) was 5540 ± 2200 ng·h/mL.

Question: What about the Cmax ([1]; male, human, in vivo, 500 mg) of the same compound?
Answer: Its Cmax is 400 ± 144 ng/mL.

Question: What about the MRT inf ([1]; male, human, in vivo, 500 mg) of the same compound?
Answer: Its MRT inf is 15.6 ± 2.76 h.

Question: What about the Tmax ([1]; male, human, in vivo, 500 mg) of the same compound?
Answer: Its Tmax is 4.0 (2.0–5.0) h.

Question: What about the half-life ([1]; male, human, plasma, oral, 500 mg) of the same compound?
Answer: Its half-life is 12.7 ± 3.05 h.

Question: And the aqueous solubility [2]?
Answer: The aqueous solubility was 7 µg/mL (≈ 12 µM).

Question: Which results are given for `C[S+]([O-])CCNCc1ccc(-c2ccc3ncnc(Nc4ccc(OCc5cccc(F)c5)c(Cl)c4)c3c2)o1` (stereo not shown) [selatinib]?
Answer: mean selatinib peak plasma concentration [3, 4]: 69.4 to 494 ng/mL; median peak time [3, 4]: 3.5 to 4.5 h; AUC0-t [3, 5]: 969 ± 161 ng·h/mL; AUC0-∞ [3, 5]: 983 ± 165 ng·h/mL; Cmax [3, 5]: 69.4 ± 18.5 ng/mL; MRT0-t [3, 5]: 15.2 ± 3.1 h; MRT0-∞ [3, 5]: 16.4 ± 3.5 h; V/F [3, 5]: 1193.3 ± 321.8 L; t1/2 [3, 5]: 15.8 ± 2.98 h; λz [3, 5]: 4.49 ± 0.788 ×10^−2 1/h; Tmax [3, 5]: 4.0 (3.0–6.0) h; AUC0-t [3, 6]: 2664 ± 1039 ng·h/mL; AUC0-∞ [3, 6]: 2688 ± 1058 ng·h/mL; Cmax [3, 6]: 178 ± 48.8 ng/mL; MRT0-t [3, 6]: 15.9 ± 2.4 h; MRT0-∞ [3, 6]: 16.7 ± 2.8 h; V/F [3, 6]: 853.2 ± 279.8 L; t1/2 [3, 6]: 14.3 ± 2.58 h; λz [3, 6]: 4.98 ± 0.917 ×10^−2 1/h; Tmax [3, 6]: 4.0 (4.0–6.0) h; AUC0-t [3, 7]: 3708 ± 1465 ng·h/mL; AUC0-∞ [3, 7]: 3735 ± 1480 ng·h/mL; MRT0-t [3, 7]: 16.4 ± 1.7 h; MRT0-∞ [3, 7]: 17.1 ± 1.9 h; V/F [3, 7]: 1247.0 ± 522.4 L; t1/2 [3, 7]: 14.0 ± 1.79 h; λz [3, 7]: 5.01 ± 0.651 ×10^−2 1/h; Tmax [3, 7]: 4.5 (4.0–8.0) h; AUC0-t [3, 8]: 5319 ± 3248 ng·h/mL; AUC0-∞ [3, 8]: 5368 ± 3274 ng·h/mL; Cmax [3, 8]: 329 ± 211 ng/mL; MRT0-t [3, 8]: 17.1 ± 1.5 h; MRT0-∞ [3, 8]: 18.0 ± 1.8 h; V/F [3, 8]: 1393.7 ± 861.8 L; t1/2 [3, 8]: 15.3 ± 1.67 h; λz [3, 8]: 4.58 ± 0.495 ×10^−2 1/h; Tmax [3, 8]: 4.0 (4.0–5.0) h; AUC0-t [3, 9]: 5904 ± 2428 ng·h/mL; AUC0-∞ [3, 9]: 5958 ± 2461 ng·h/mL; Cmax [3, 9]: 352 ± 147 ng/mL; MRT0-t [3, 9]: 17.4 ± 2.3 h; MRT0-∞ [3, 9]: 18.3 ± 2.6 h; V/F [3, 9]: 1380.6 ± 1006.1 L; t1/2 [3, 9]: 15.1 ± 1.09 h; λz [3, 9]: 4.60 ± 0.334 ×10^−2 1/h; Tmax [3, 9]: 4.5 (4.0–6.0) h; AUC0-t [3, 10]: 7072 ± 2001 ng·h/mL; AUC0-∞ [3, 10]: 7115 ± 1995 ng·h/mL; Cmax [3, 10]: 494 ± 156 ng/mL; MRT0-t [3, 10]: 16.0 ± 2.6 h; MRT0-∞ [3, 10]: 16.7 ± 3.0 h; V/F [3, 10]: 1059.1 ± 425.1 L; t1/2 [3, 10]: 13.8 ± 2.19 h; λz [3, 10]: 5.14 ± 0.765 ×10^−2 1/h; Tmax [3, 10]: 4.5 (2.0–5.0) h; AUC0-t [3, 11]: 7142 ± 2463 ng·h/mL; AUC0-∞ [3, 11]: 7191 ± 2482 ng·h/mL; Cmax [3, 11]: 486 ± 144 ng/mL; MRT0-t [3, 11]: 15.5 ± 0.5 h; MRT0-∞ [3, 11]: 16.2 ± 0.5 h; V/F [3, 11]: 1650.8 ± 652.2 L; t1/2 [3, 11]: 14.8 ± 0.152 h; λz [3, 11]: 4.68 ± 0.0482 ×10^−2 1/h; Tmax [3, 11]: 3.5 (2.0–5.0) h; linearity of pharmacokinetics ([3]; dose range of 50–500 mg): conformed with linear pharmacokinetics; B/A% of AUC0-t [1, 12]: 101.06%; B/A% of AUC0-∞ [1, 12]: 101.09%; B/A% of Cmax [1, 12]: 94.53%; AUC0-t [1, 13]: 9280 ± 3800 ng·h/mL; AUC0-∞ [1, 13]: 9400 ± 3910 ng·h/mL; Cmax [1, 13]: 601 ± 242 ng/mL; MRT0-∞ [1, 13]: 19.2 ± 3.16 h; t1/2 [1, 13]: 15.6 ± 2.47 h; λz [1, 13]: 4.52 ± 0.682 ×10^−2 /h; Tmax ([1]; Part 2, single 500 mg dose of A (selatinib ditosilate tablets), n = 6, analyte as labelled, median (min-max)): 5.0 (4.0–6.0) h; V/F ([1]; Part 2, single 500 mg dose of A (selatinib ditosilate tablets), n = 6, mean ± SD): 1370 ± 586 L; AUC0-t [1, 14]: 8780 ± 1350 ng·h/mL; AUC0-∞ [1, 14]: 8890 ± 1410 ng·h/mL; Cmax [1, 14]: 556 ± 191 ng/mL; MRT0-∞ [1, 14]: 18.9 ± 2.87 h; t1/2 [1, 14]: 16.2 ± 1.87 h; λz [1, 14]: 4.32 ± 0.453 ×10^−2 /h; Tmax ([1]; Part 2, single 500 mg dose of B (selatinib ditosilate dry suspension), n = 6, analyte as labelled, median (min-max)): 4.5 (3.0–6.0) h; V/F ([1]; Part 2, single 500 mg dose of B (selatinib ditosilate dry suspension), n = 6, mean ± SD): 1330 ± 192 L
